Data from patent US8383619B2, “Pharmaceutical compounds” (Astex Therapeutics Limited, priority 2008, dated 2013).

How the values were obtained:
Test in all cases: Anti-proliferative assay (Oncodesign)
Assay type in all cases: cell-based
A-498 = conditions: Homo sapiens, A498; A-498 (KIDNEY); read-out: IC50 (Concentration of test compound)
Outline: (§1)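 Plate cells; 16 h recovery; add compound, 72 h; add 10% (v/v) Alamar Blue, 6 h; read fluorescence 535/590. IC50 (nM), max conc 10,000 nM.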

BB30-HNSCC = BB30-HNSCC (HEAD AND NECK); read-out: IC50 (Concentration of test compound)
Outline: as §1

BV-173 = conditions: Homo sapiens; BV-173 (BLOOD); read-out: IC50 (Concentration of test compound)
Outline: as §1

BxPC-3 = conditions: Homo sapiens; BxPC-3 (PANCREAS); read-out: IC50 (Concentration of test compound)
Outline: as §1

Calu-3 = conditions: Homo sapiens; Calu-3 (LUNG); read-out: IC50 (Concentration of test compound)
Outline: as §1

FTC-238 = FTC-238 (THYROID); read-out: IC50 (Concentration of test compound)
Outline: as §1

HCT 116 = conditions: Homo sapiens; HCT 116 (COLON); read-out: IC50 (Concentration of test compound)
Outline: as §1

Hep 3B2.1-7 = Hep 3B2.1-7 (LIVER); read-out: IC50 (Concentration of test compound)
Outline: as §1

IGROV-1 = conditions: Homo sapiens; IGROV-1 (OVARY); read-out: IC50 (Concentration of test compound)
Outline: as §1

KATO III = conditions: Homo sapiens; KATO III (STOMACH); read-out: IC50 (Concentration of test compound)
Outline: as §1

KB3 = KB3 (HEAD AND NECK); read-out: IC50 (Concentration of test compound)
Outline: as §1

LAMA-84 = conditions: Homo sapiens; LAMA-84 (BLOOD); read-out: IC50 (Concentration of test compound)
Outline: as §1

LB12-SCLC/OC2 = LB12-SCLC/OC2 (LUNG); read-out: IC50 (Concentration of test compound)
Outline: as §1

LB13-SCLC/OC3 = LB13-SCLC/OC3 (LUNG); read-out: IC50 (Concentration of test compound)
Outline: as §1

LB1617-HNSCC = LB1617-HNSCC (HEAD AND NECK); read-out: IC50 (Concentration of test compound)
Outline: as §1

MDA-MB-435S = conditions: Homo sapiens; MDA-MB-435S (BREAST); read-out: IC50 (Concentration of test compound)
Outline: as §1

NAMALWA = NAMALWA (BLOOD); read-out: IC50 (Concentration of test compound)
Outline: as §1

NCI-H520 = conditions: Homo sapiens; NCI-H520 (LUNG); read-out: IC50 (Concentration of test compound)
Outline: as §1

OCI-AML2 = conditions: Homo sapiens; OCI-AML2 (BLOOD); read-out: IC50 (Concentration of test compound)
Outline: as §1

PANC-1 = conditions: Homo sapiens; PANC-1 (PANCREAS); read-out: IC50 (Concentration of test compound)
Outline: as §1

RPMI 8226 = conditions: Homo sapiens; RPMI 8226 (BLOOD); read-out: IC50 (Concentration of test compound)
Outline: as §1

Ramos = conditions: Homo sapiens; Ramos (BLOOD); read-out: IC50 (Concentration of test compound)
Outline: as §1

SK-MEL-2 = conditions: Homo sapiens; SK-MEL-2 (SKIN); read-out: IC50 (Concentration of test compound)
Outline: as §1

T24 = conditions: Homo sapiens, T-24; T24 (URINARY BLADDER); read-out: IC50 (Concentration of test compound)
Outline: as §1

ZR-75-1 = conditions: Homo sapiens; ZR-75-1 (BREAST); read-out: IC50 (Concentration of test compound)
Outline: as §1

`CC(C)c1cc(C(=O)N2Cc3ccc(CN4CCN(C)CC4)cc3C2)c(O)cc1O` [(2,4-dihydroxy-5-isopropyl-phenyl)-[5-(4-methyl-piperazin-1-ylmethyl)-1,3-dihydro-isoindol-2-yl]-methanone] gave an IC50 (A-498) of 267 nM, an IC50 (BB30-HNSCC) of 273 nM and an IC50 (BV-173) of 73 nM. It also gave an IC50 (BxPC-3) of 196 nM, an IC50 (Calu-3) greater than 10000 nM and an IC50 (FTC-238) of 26 nM. The IC50 (HCT 116) was 38 nM, the IC50 (Hep 3B2.1-7) was 95 nM and the IC50 (IGROV-1) was 109 nM. It also gave an IC50 (KATO III) of 162 nM, an IC50 (KB3) of 48 nM and an IC50 (LAMA-84) of 1100 nM. It also gave an IC50 (LB12-SCLC/OC2) of 52 nM, an IC50 (LB13-SCLC/OC3) of 21 nM and an IC50 (LB1617-HNSCC) of 139 nM. For the same compound, the IC50 (MDA-MB-435S) was 26 nM, the IC50 (NAMALWA) was 93 nM and the IC50 (NCI-H520) was 98 nM. It also gave an IC50 (OCI-AML2) greater than 10000 nM, an IC50 (PANC-1) of 327 nM and an IC50 (RPMI 8226) of 10 nM. It also gave an IC50 (Ramos) of 46 nM, an IC50 (SK-MEL-2) of 138 nM and an IC50 (T24) of 852 nM. The IC50 (ZR-75-1) was 131 nM.
